Tests used:
[1] = test system: corneal barrier of the in vitro cornea device (epithelial, fibroblast, endothelial triculture); experiment: Permeability of the in vitro cornea device to FSS after trypan blue exposure; assay type: cell-based; conditions: trypan blue injected into TFEp channel at 3 μL/min for 4 min, incubated at 37° C. for 15 min; then FSS injected into TFEp channel and permeability assayed; worded "can be"
Experimental: (§1) In some embodiments, all channels of the device can be coated with human fibronectin to facilitate cellular attachment. For example, primary human corneal fibroblasts can be seeded on Day 0. Fibroblasts can be harvested, concentrated to 1×10^7 cells/mL and injected into the stromal chamber via a remote head syringe pump at 5 μL/min until cells are homogenously distributed. Devices can then be incubated at 37° C., 5% CO2 for 4 hours to allow for attachment. Media can be subsequently refreshed every 24 hours. Primary human corneal epithelial cells can be seeded into the TFEp circulation channel on Day 3. […]
(§2) Viability can be assessed on-chip as an endpoint for epithelial, fibroblast, and endothelial cells. Devices are prepared for viability quantitation by incubation with calcein AM and ethidium homodimer in PBS. After rinsing the cells with PBS, fluorescent images are taken via microscope, and the data was analyzed to determine cornea triculture viability (scc, FIG. 5A). […]
Following exposure, FSS can be injected into the TFEp channel and permeability assayed. […] Samples can be taken from cell-laden channels (individually or combined) and placed in a low volume, white walled […] plate for luminescence analysis using a plate reader. […] The increase in AK release in arbitrary luminescence units compares the toxic exposure of trypan blue to positive and negative controls. […]

[2] = test system: cells of the in vitro cornea device (cell-laden channels); experiment: Cytotoxicity by adenylate kinase release (luminescence) from the cell-laden channels of the in vitro cornea device; assay type: cell-based; conditions: trypan blue exposure; compared with positive control (100% death by lysis buffer) and negative control (media only); arbitrary luminescence units; worded "expected"
Experimental: as §1, §2
Following exposure, FSS can be injected into the TFEp channel and permeability assayed. […] Samples can be taken from cell-laden channels (individually or combined) and placed in a low volume, white walled […] plate for luminescence analysis using a plate reader. […] The increase in AK release in arbitrary luminescence units compares the toxic exposure of trypan blue to positive and negative controls.

Compound: Cc1cc(-c2ccc(/N=N/c3c(S(=O)(=O)O)cc4cc(S(=O)(=O)O)cc(N)c4c3O)c(C)c2)ccc1/N=N/c1c(S(=O)(=O)O)cc2cc(S(=O)(=O)O)cc(N)c2c1O [trypan blue]
- Permeability in trypan blue treated devices compared to controls [1]: 10 fold
- Increase in adenylate kinase release [2]: 1.5 fold

From patent US20240197166A1, “COMPUTATIONAL IN SILICO MODEL FOR CORNEA BARRIER” (CFD Research Corporation, priority 2022, published 2024)
